Data as given in ChEMBL document CHEMBL4000252, “Discovery of N-(2-aminoethyl)-N-benzyloxyphenyl benzamides: New potent Trypanosoma brucei inhibitors” (Bioorg Med Chem, 2017).
Calls of active or inactive are those of the source. No cut-off for these calls is given here.

How the values were obtained:
[1] = test system: Trypanosoma brucei brucei; experiment: Antiparasitic activity against Trypanosoma brucei brucei BF427 assessed as growth inhibition at 16 times EC50 pretreated for 24 hrs followed by compound washout measured after 10 days by light microscopic method; format: functional
[2] = Cytotoxicity against human CRL8155 cells assessed as growth inhibition after 48 hrs by Alamar blue assay; format: cell-based; details: crl8155, 48 h
[3] = Ratio of drug level in brain to plasma in mouse at 5 mg/kg, ip after 1 hr by LC-MS analysis; format: ADME, organism-based
Liver [4] = experiment: Half life in human liver microsomes at 1.5 uM by LC-MS analysis; format: ADME, microsome
[5] = test system: Trypanosoma brucei brucei; experiment: Antiparasitic activity against Trypanosoma brucei brucei TREU667 infected in mouse assessed as decrease in parasitemia at 50 mg/kg, bid administered via oral gavage on day 21 to 34 post infection measured on day 34 by microscopic method; format: functional, organism-based
Liver [6] = experiment: Half life in mouse liver microsomes at 1.5 uM by LC-MS analysis; format: ADME, microsome
[7] = test system: Trypanosoma brucei brucei; experiment: Antiparasitic activity against Trypanosoma brucei brucei BF427 assessed as growth inhibition at 4 times EC50 pretreated for 96 hrs followed by compound washout measured after 10 days by light microscopic method; format: functional
[8] = test system: Trypanosoma brucei rhodesiense; experiment: Antiparasitic activity against Trypanosoma brucei rhodesiense STIB900 infected in Swiss-Webster mouse assessed as cure rate at 50 mg/kg, bid administered via oral gavage from day 2 to 5 post infection measured after 60 days by microscopic method relative to control; format: functional
[9] = test system: Trypanosoma brucei brucei; experiment: Antiparasitic activity against Trypanosoma brucei brucei TREU667 infected in mouse assessed as decrease in parasitemia at 50 mg/kg, bid administered via oral gavage on day 21 to 34 post infection measured on day 41 to 42 by microscopic method; format: functional, organism-based
[10] = test system: Trypanosoma brucei brucei; experiment: Antiparasitic activity against Trypanosoma brucei brucei TREU667 infected in mouse assessed as decrease in parasitemia at 50 mg/kg, bid administered via oral gavage on day 21 to 34 post infection measured on day 36 by microscopic method; format: functional, organism-based
[11] = Cmax in mouse at 50 mg/kg, po by LC-MS analysis; format: ADME, organism-based; parameters: dose 50 mg/kg, route oral; details: in vivo
[12] = AUC (0 to 8 hrs) in mouse at 50 mg/kg, po by LC-MS analysis; format: ADME, organism-based; parameters: dose 50 mg/kg, time < 8 hr, route oral; details: in vivo
HepG2 = experiment: Cytotoxicity against human HepG2 cells assessed as growth inhibition after 48 hrs by Alamar blue assay; format: cell-based; details: hepg2, 48 h
[13] = test system: Trypanosoma brucei brucei; experiment: Antiparasitic activity against Trypanosoma brucei brucei BF427 assessed as growth inhibition after 48 hrs by Alamar blue assay; format: functional; details: BF427, 48 h
[14] = test system: Trypanosoma brucei brucei; experiment: Antiparasitic activity against Trypanosoma brucei brucei BF427 assessed as growth inhibition at 8 times EC50 pretreated for 48 hrs followed by compound washout measured after 10 days by light microscopic method; format: functional
[15] = test system: Trypanosoma brucei brucei; experiment: Antiparasitic activity against Trypanosoma brucei brucei BF427 assessed as growth inhibition at 8 times EC50 pretreated for 72 hrs followed by compound washout measured after 10 days by light microscopic method; format: functional
[16] = test system: Trypanosoma brucei brucei; experiment: Antiparasitic activity against Trypanosoma brucei brucei TREU667 infected in mouse assessed as decrease in parasitemia at 50 mg/kg, bid administered via oral gavage on day 21 to 34 post infection measured on day 35 by microscopic method; format: functional, organism-based
[17] = test system: Trypanosoma brucei brucei; experiment: Antiparasitic activity against Trypanosoma brucei brucei TREU667 infected in mouse assessed as decrease in parasitemia at 50 mg/kg, bid administered via oral gavage on day 21 to 34 post infection measured on day 46 to 49 by microscopic method; format: functional, organism-based
[18] = test system: Trypanosoma brucei brucei; experiment: Antiparasitic activity against Trypanosoma brucei brucei TREU667 infected in mouse assessed as decrease in parasitemia at 50 mg/kg, bid administered via oral gavage on day 21 to 34 post infection measured on day 52 to 180 by microscopic method; format: functional, organism-based
[19] = test system: Trypanosoma brucei brucei; experiment: Antiparasitic activity against Trypanosoma brucei brucei TREU667 infected in mouse assessed as decrease in parasitemia at 50 mg/kg, bid administered via oral gavage on day 21 to 34 post infection measured on day 43 to 45 by microscopic method; format: functional, organism-based
[20] = test system: Trypanosoma brucei brucei; experiment: Antiparasitic activity against Trypanosoma brucei brucei TREU667 infected in mouse assessed as decrease in parasitemia at 50 mg/kg, bid administered via oral gavage on day 21 to 34 post infection measured on day 37 by microscopic method; format: functional, organism-based
[21] = test system: Trypanosoma brucei brucei; experiment: Antiparasitic activity against Trypanosoma brucei brucei TREU667 infected in mouse assessed as decrease in parasitemia at 50 mg/kg, bid administered via oral gavage on day 21 to 34 post infection measured on day 38 by microscopic method; format: functional, organism-based
[22] = test system: Trypanosoma brucei brucei; experiment: Antiparasitic activity against Trypanosoma brucei brucei TREU667 infected in mouse assessed as decrease in parasitemia at 50 mg/kg, bid administered via oral gavage on day 21 to 34 post infection measured on day 40 by microscopic method; format: functional, organism-based
[23] = test system: Trypanosoma brucei brucei; experiment: Antiparasitic activity against Trypanosoma brucei brucei TREU667 infected in mouse assessed as decrease in parasitemia at 50 mg/kg, bid administered via oral gavage on day 21 to 34 post infection measured on day 50 to 51 by microscopic method; format: functional, organism-based
[24] = test system: Trypanosoma brucei brucei; experiment: Antiparasitic activity against Trypanosoma brucei brucei TREU667 infected in mouse assessed as decrease in parasitemia at 50 mg/kg, bid administered via oral gavage on day 21 to 34 post infection measured on day 39 by microscopic method; format: functional, organism-based
[25] = test system: Trypanosoma brucei brucei; experiment: Antiparasitic activity against Trypanosoma brucei brucei BF427 assessed as growth inhibition at 32 times EC50 pretreated for 96 hrs followed by compound washout measured after 10 days by light microscopic method; format: functional
[26] = test system: Trypanosoma brucei brucei; experiment: Antiparasitic activity against Trypanosoma brucei brucei BF427 assessed as growth inhibition at 32 times EC50 pretreated for 48 hrs followed by compound washout measured after 10 days by light microscopic method; format: functional
[27] = test system: Trypanosoma brucei brucei; experiment: Antiparasitic activity against Trypanosoma brucei brucei BF427 assessed as growth inhibition at 16 times EC50 pretreated for 72 hrs followed by compound washout measured after 10 days by light microscopic method; format: functional
Cytochrome P450 3A4 = Cytochrome P450 3A4 (Homo sapiens, UniProt P08684); experiment: Inhibition of human CYP3A4; format: ADME
Sequence of Cytochrome P450 3A4 (P08684 whole entry): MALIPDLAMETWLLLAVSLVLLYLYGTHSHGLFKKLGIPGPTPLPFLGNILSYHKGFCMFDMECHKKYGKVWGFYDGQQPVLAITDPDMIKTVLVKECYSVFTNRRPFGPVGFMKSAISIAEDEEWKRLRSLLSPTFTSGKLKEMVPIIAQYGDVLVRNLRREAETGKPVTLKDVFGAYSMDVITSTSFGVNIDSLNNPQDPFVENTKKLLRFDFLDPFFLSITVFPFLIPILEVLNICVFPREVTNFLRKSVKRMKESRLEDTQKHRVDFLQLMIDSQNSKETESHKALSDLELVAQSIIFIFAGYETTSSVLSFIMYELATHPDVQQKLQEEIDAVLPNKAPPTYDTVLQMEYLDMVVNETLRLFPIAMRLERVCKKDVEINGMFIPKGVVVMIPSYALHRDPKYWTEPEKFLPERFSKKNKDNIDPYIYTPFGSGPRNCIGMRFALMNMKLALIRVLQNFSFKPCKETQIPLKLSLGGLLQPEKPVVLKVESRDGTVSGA

[28] = test system: Trypanosoma brucei brucei; experiment: Antiparasitic activity against Trypanosoma brucei brucei BF427 assessed as growth inhibition at EC50 pretreated for 96 hrs followed by compound washout measured after 10 days by light microscopic method; format: functional
[29] = test system: Trypanosoma brucei brucei; experiment: Antiparasitic activity against Trypanosoma brucei brucei BF427 assessed as growth inhibition at 4 times EC50 pretreated for 48 hrs followed by compound washout measured after 10 days by light microscopic method; format: functional
[30] = test system: Trypanosoma brucei brucei; experiment: Antiparasitic activity against Trypanosoma brucei brucei BF427 assessed as growth inhibition at EC50 pretreated for 72 hrs followed by compound washout measured after 10 days by light microscopic method; format: functional
[31] = test system: Trypanosoma brucei brucei; experiment: Antiparasitic activity against Trypanosoma brucei brucei BF427 assessed as growth inhibition at 4 times EC50 pretreated for 24 hrs followed by compound washout measured after 10 days by light microscopic method; format: functional

Structure (SMILES)	growth inhibition (GI) [1]	CC50 [2] [µM]	BPR [3]	t1/2 (Liver [4]) [min]	Activity [5]	Activity [8]	Activity [9]	Activity [10]	Cmax [11] [nM]	AUC(0-t) at 8 h [12] [µM·h]	CC50 (HepG2) [µM]	Activity [16]	other results
CC(C)c1ccc(COc2ccc(N(CCN)C(=O)c3cccnc3Cl)cc2)cc1.Cl	Active	4.03	0.16	> 60	Active	67 - 80%	inactive	Active	1890	12.3	10.5	Active	t1/2 (Liver [6]): > 60 min; growth inhibition (GI) [7]: Active; EC50 [13]: 2 nM; growth inhibition (GI) [14]: Active; growth inhibition (GI) [15]: Active
CC1(C)OB(O)c2cc(NC(=O)c3ccc(F)cc3C(F)(F)F)ccc21					Active		Active	Active				Active	Activity [17]: Active; Activity [18]: Active; Activity [19]: Active; Activity [20]: Active; Activity [21]: Active; Activity [22]: Active; Activity [23]: Active; Activity [24]: Active
CC(C)c1ccc(COc2ccc(N(CCN)C(=O)c3ccc(Cl)cc3Cl)cc2)cc1.Cl	Active	3.1	0.32	> 60		67 - 80%			1490	21	3.19		growth inhibition (GI) [25]: Active; growth inhibition (GI) [26]: Active; growth inhibition (GI) [27]: Active; IC50 (Cytochrome P450 3A4): 15 nM
N=C(N)c1ccc(OCCCCCOc2ccc(C(=N)N)cc2)cc1													growth inhibition (GI) [28]: Active; growth inhibition (GI) [29]: Active; growth inhibition (GI) [30]: Active; growth inhibition (GI) [31]: Active
